# Assay results: patent publication US20230192660A1 (priority 2020, published 2023)
# Values joined by “and” are separate entries in the source; they are usually repeats but may differ in a detail not shown here. Equal values may be shown once. Read-outs that look alike come from different tables or passages of the source.
# Experiments:
# SARS-CoV-2 M^pro-His6 = SARS-CoV-2 M^pro-His6 (Severe acute respiratory syndrome coronavirus 2, UniProt P0DTD1); test: biochemical; settings: read-out: inhibition of enzyme activity
# MERS Mpro = MERS Mpro (Middle East respiratory syndrome-related coronavirus, UniProt K9N7C7); test: biochemical
# HCoV229E Mpro = HCoV229E Mpro (Human coronavirus 229E, UniProt P0C6X1); test: biochemical
# SARS-CoV-2 mature Mpro = SARS-CoV-2 mature Mpro (Severe acute respiratory syndrome coronavirus 2, UniProt P0DTD1); format: binding; settings: 3 μM Mpro, 30 μM compound
# in vitro [1] = settings: human
# in vitro [2] = settings: human; remark: listed apart in the source
# physchem = settings: aqueous buffer, kinetic from dmso stock
# in vitro [3] = settings: human, Caco-2
# in vitro [4] = settings: mouse, plasma
# mature SARSCoV2 M^pro = mature SARSCoV2 M^pro (Severe acute respiratory syndrome coronavirus 2, UniProt P0DTD1); test: biochemical; parameters: species or system SARS-CoV-2
# MHV M^pro = MHV M^pro (UniProt P0C6X9); test: In-vitro Mpro inhibition assay, MHV enzyme; format: biochemical, mouse hepatitis virus (MHV)
# Human Cathepsin B = Human Cathepsin B (Homo sapiens, UniProt P07858); test: Cathepsin B protease specificity assay (Z-LR-AMC substrate); format: biochemical; settings: 0.05 ng/uL Cathepsin B, pH 5.5, 2 mM DTT; read-out: IC50 HCathepsin B
# Human Cathepsin L = Human Cathepsin L (Homo sapiens, UniProt P07711); test: biochemical; settings: 0.01 ng/uL Cathepsin L, pH 5.5, 2 mM DTT; read-out: IC50 HCathepsin L
# in vitro [5] = settings: human, Caco-2; remark: listed apart in the source
# in vitro [6] = settings: human; remark: listed apart in the source
# in vitro [7] = settings: human plasma
# [8] = after a maximal 800 mg oral dose; cited from earlier work
# SARSCoV2 = format: cell-based, SARS-CoV-2; settings: read-out: EC50
# Huh7 cells = settings: read-out: CC50 Huh7; 72h incubation
# [9] = not given; remark: listed apart in the source
# [10] = not given; remark: listed apart in the source
# [11] = after a nasal dose; cited from earlier work
# [12] = 100 nM MHV Mpro, read-out: IC50 MHV Mpro
# [13] = read-out: IC50, 100 nM mature MHV M^pro at 30° C., 100 nM enzyme, 30° C.
# HCoV229E Mpro, sequence (P0C6X1 2966-3267): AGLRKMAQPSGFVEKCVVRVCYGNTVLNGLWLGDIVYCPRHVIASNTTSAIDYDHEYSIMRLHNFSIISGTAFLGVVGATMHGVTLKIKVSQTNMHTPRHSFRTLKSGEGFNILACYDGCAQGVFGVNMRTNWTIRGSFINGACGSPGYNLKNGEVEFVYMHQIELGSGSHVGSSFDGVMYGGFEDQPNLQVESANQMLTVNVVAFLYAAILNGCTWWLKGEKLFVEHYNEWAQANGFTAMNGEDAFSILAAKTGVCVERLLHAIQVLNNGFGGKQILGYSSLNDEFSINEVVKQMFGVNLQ
# MHV M^pro, sequence (P0C6X9 3334-3635): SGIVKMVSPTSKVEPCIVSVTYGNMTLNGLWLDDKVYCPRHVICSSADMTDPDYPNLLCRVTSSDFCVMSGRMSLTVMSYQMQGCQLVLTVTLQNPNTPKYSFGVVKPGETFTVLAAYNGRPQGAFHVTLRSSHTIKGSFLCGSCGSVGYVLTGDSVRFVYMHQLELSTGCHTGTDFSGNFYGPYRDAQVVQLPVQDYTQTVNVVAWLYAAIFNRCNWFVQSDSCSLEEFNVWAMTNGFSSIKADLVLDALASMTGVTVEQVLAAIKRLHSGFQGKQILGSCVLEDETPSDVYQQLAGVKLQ
# Human Cathepsin L, sequence (P07711 114-333): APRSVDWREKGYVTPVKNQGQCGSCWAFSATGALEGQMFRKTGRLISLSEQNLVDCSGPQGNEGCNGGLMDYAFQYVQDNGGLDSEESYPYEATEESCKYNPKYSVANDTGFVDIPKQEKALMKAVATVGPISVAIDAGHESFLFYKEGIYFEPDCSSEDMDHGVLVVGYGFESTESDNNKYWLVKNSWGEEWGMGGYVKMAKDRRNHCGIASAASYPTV
# MERS Mpro, sequence (K9N7C7 3248-3553 limits assumed): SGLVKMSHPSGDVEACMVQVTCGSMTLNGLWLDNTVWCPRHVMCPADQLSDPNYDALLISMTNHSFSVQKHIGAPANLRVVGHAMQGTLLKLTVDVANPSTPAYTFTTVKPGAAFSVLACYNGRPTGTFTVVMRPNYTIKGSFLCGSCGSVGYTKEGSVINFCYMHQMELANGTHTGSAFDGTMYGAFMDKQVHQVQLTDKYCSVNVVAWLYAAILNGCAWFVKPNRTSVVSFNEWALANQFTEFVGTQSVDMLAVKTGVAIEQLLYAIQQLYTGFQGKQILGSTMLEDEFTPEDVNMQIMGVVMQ
Structure (SMILES),IC50 (MERS Mpro) [nM],IC50 (HCoV229E Mpro) [nM],ΔTm Mpro (SARS-CoV-2 mature Mpro) [°C],CC50 (in vitro [1]) [nM],CC50 (in vitro [2]) [nM],solubility kinetic (physchem) [µM],Papp A→B (in vitro [3]) [×10⁻⁶ cm/s],Papp B→A (in vitro [3]) [×10⁻⁶ cm/s],half-life (in vitro [4]) [h],IC50 (MHV M^pro; [12]) [nM],IC50 (Human Cathepsin B) [nM],IC50 (Human Cathepsin L) [nM],other results
CCN(CC)C(=S)SSC(=S)N(CC)CC [disulfiram],,,,,,,,,,,,,inhibition at 150 µM (SARS-CoV-2 M^pro-His6): < 50%
CNC(=O)C(=O)[C@H](C[C@@H]1CCNC1=O)NC(=O)[C@@H]1[C@@H]2[C@H](CN1C(=O)CNc1c(F)cc(F)cc1F)C2(C)C [ML104m],290,230,17.1,> 100000,> 100000,98,0.5,2.5,1.35,,,,
CC1(C)[C@@H]2[C@@H](C(=O)NC(C[C@@H]3CCNC3=O)C(=O)C(N)=O)N(C(=O)CNc3c(F)cc(F)cc3F)C[C@@H]21 (stereo partly drawn) [ML104],190,440,17.5,> 100000,> 100000,86,< 0.2,0.9,1.67,250,17000,11000,"IC50 (mature SARSCoV2 M^pro; Example 6, read-out: IC50 against SARS-CoV-2 Mpro): < 50 nM and 30 nM; Plasma Stability Human T1/2: ∞; CC50 (in vitro [5]): > 100000 nM"
"CC(C)(C)NC(=O)N[C@H](C(=O)N1C[C@H]2[C@@H]([C@H]1C(=O)NC(CC1CCC1)C(=O)C(N)=O)C2(C)C)C(C)(C)C (stereo partly drawn) [Boceprevir, boceprevir, reference compound]",,,,,,73,2,29,0.467,15000,4500,400,IC50 (MHV M^pro; [13]): 15000 ± 7000 nM; CC50 (in vitro [6]): > 100000 nM; CC50 (in vitro [5]): > 100000 nM; half-life (in vitro [7]): 8.25 h; peak plasma concentration [8]: 3 µM
O=c1c2ccccc2[se]n1-c1ccccc1 [ebselen],,,,,,,,,,,,,inhibition at 150 µM (SARS-CoV-2 M^pro-His6): < 50%
"CC(C)C[C@H](NC(=O)OCc1ccccc1)C(=O)N[C@@H](CC1CCNC1=O)C(O)S(=O)(=O)[O-].[Na+] (stereo partly drawn) [GC-376, reference compound]",,,,,,,,,,50,1,1,IC50 (MHV M^pro; [13]): 67 nM; EC50 (SARSCoV2): 0.1 nM; CC50 (Huh7 cells): > 100000 nM; Kinetic Solubility in PBS [9]: 71 µM; Caco-2 Permeability Papp A-B (Caco-2; A-B): <0.3 10-6 cm/s; Caco-2 Permeability Papp B-A (Caco-2; B-A): 5 10-6 cm/s; Plasma Stability Human T1/2: 1.58 h; Plasma Stability Mouse T1/2 [10]: 3.87 h
CNC(=O)C(=O)[C@H](C[C@@H]1CCNC1=O)NC(=O)[C@@H]1[C@@H]2[C@H](CN1C(=O)[C@@H](NC(=O)C13CC(C1)C3)C(C)(C)C)C2(C)C [ML1002m],250,400,21,> 100000,> 100000,> 100,0.4,0.7,2.83,,,,"IC50 (mature SARSCoV2 M^pro; 20 nM SARSCoV2 Mpro, 30 min incubation, read-out: IC50 SARSCov2 Mpro): 20 nM"
CCOC(=O)/C=C/[C@H](C[C@@H]1CCNC1=O)NC(=O)[C@@H](CC(=O)[C@@H](NC(=O)c1cc(C)on1)C(C)C)Cc1ccc(F)cc1 [rupintrivir],,,,,,,,,,,,,concentration on nasal surfaces [11]: 5 µM
